According to patent publication US12264146B2, “Rho kinase inhibitor, method for preparing same and uses thereof” (BEIJING INCREASE INNOVATIVE DRUG CO., LTD., priority 2018, dated 2025):
Structures can show the parent of a compound that is named as a salt.

How the values were obtained:
Format in all cases: cell-based
[1] = test system: endothelial nitric oxide synthase (eNOS); test: Endothelial nitric oxide synthase (eNOS) in EA.Hy926 endothelial cells, detection kit; conditions: 24 h; for expression of endothelial nitric oxide synthase in endothelial cells: Detection result of test compound at low dose (0.4 μM) / expression of endothelial nitric oxide synthase in endothelial cells: Detection result of test compound at medium dose (2 μM) / expression of endothelial nitric oxide synthase in endothelial cells: Detection result of test compound at high dose (10 μM): EA.Hy926 cell supernatant
Method: (§1) Commercially available cytokine kits were used to detect the effects of the compounds of the present application on vascular endothelium-derived contracting factor endothelin, vascular endothelium-derived relaxing factor endothelial nitric oxide synthase, nitric oxide, and prostacyclin factor. The detection was performed according to the kit instructions. When testing the effect of the compound of the present application on cytokines, a normal control group, a fasudil hydrochloride group, and high-, medium- and low-dose groups of the compounds of the present application were set up for testing. The fasudil hydrochloride used in this test example was purchased from Beijing Sihuan Pharmaceutical Co., Ltd., with the SFDA approval number of H20173349. The EA.Hy926 cells used in this test example were purchased from Suzhou Beina Chuanglian Biotechnology Co., Ltd.
Detection conditions: EA.Hy926 cells were inoculated at 1×10^5 […] in a 96-well plate, 100 μL per well, and cultured adherently for 24 hours, then the test compound prepared with DMEM medium was added, the normal control group was added with an equal volume of DMEM medium, then the cells were cultured for 24 hours at 37° C., and then the cell supernatant was taken and placed in an EP tube, and centrifuged at 3000 r/min and 4° C. for 15 minutes, the resulting supernatant was transferred to a new EP tube, diluted 3 times, and detected according to the instruction of eNOs detection kit (purchased from Wuhan Elabscience Biotechnology Co., Ltd., Cat. No. AK0017OCT12013), and the detection results were shown in Table 4.

[2] = Toxicity test on endothelial cells EA.hy926, CCK-8 cell viability; conditions: human, 1000~0.32 μmol/L, 5-fold dilution, read-out: IC50 of Test compound (cytotoxicity on EA.hy926 cells)
Method: In this test example, 31 groups, i.e., Groups 1 to 31, were set, in which Group 1 was a blank control group, Group 2 was a normal control group, Group 3 was a positive control group, and Groups 4 to 31 were test groups of the compounds of the present application. The specific test operation comprised: 100 μL of endothelial cells EA.hy926 (purchased from Suzhou Beina Chuanglian Biotechnology Co., Ltd.) with a density of 5×10^4 was added to each well of a 96-well plate, and transferred to an incubator at 37° C. with 5% CO2 and saturated humidity conditions and cultured for 24 hours, 100 μL of 2× the test compound solution prepared and diluted with DMEM medium containing 10% fetal bovine serum was added, in which the test compound added in the positive control group was Fasudil hydrochloride (purchased from Beijing Sihuan Pharmaceutical Co., Ltd., SFDA approval number H20173349) solution with different concentrations, an equal volume of DMEM medium was added in the blank control group, an equal volume of PBS buffer was added in the normal control group, and a duplicate well was set for each concentration point. After adding the test compound, the culture was continued in the incubator for 24 hours, then 20 μL of CCK-8 detection solution (purchased from Beijing Solarbio Science & Technology Co., Ltd., Cat. No. CA1210) was added to each well, interacted at 37° C. for 2.5 hours, shaken and mixed well, and then the absorbance value at 450 nm was detected.
OD values were detected, and the cell viability values of test groups of different concentrations were calculated according to the cell viability calculation formula as follows: Cell viability=(Atest group−Ablank control)/(Anormal control−Ablank control)*100%
wherein A represented absorbance value at 450 nm.
Prism6.0 was used to obtain the inhibitor concentration-viability curve and to calculate the IC50 of the test compound, the correlation coefficient R^2>0.99; the inhibitor concentration-viability curves of Fasudil hydrochloride, R-YK1601, R-YK1603, R-YK1606, R-YK1607, R-YK1610 were shown in FIGS. 1 to 6, in which the abscissa was the logarithm on base 10 of the concentration of the test compound, and the ordinate was the cell activity (i.e., cell viability).

[3] = test system: prostacyclin (PGI2); test: Expression of prostacyclin (PGI2) in EA.Hy926 endothelial cells, ELISA kit; conditions: 24 h; for expression of prostacyclin in endothelial cells: Detection result of test compound at low dose (0.4 μM) / expression of prostacyclin in endothelial cells: Detection result of test compound at medium dose (2 μM) / expression of prostacyclin in endothelial cells: Detection result of test compound at high dose (10 μM): EA.Hy926 cell supernatant
Method: as §1
EA.Hy926 cells were taken and inoculated in a 96-well plate at 5×10^4 cells/mL, 100 μL per well, and cultured adherently for 24 hours, then the test compound prepared in DMEM medium was added, and an equal volume of DMEM medium was added in the normal control group, then the cells were cultured at 37° C. for 24 hours, and then the cell supernatant was taken and placed in an EP tube, and centrifuged for 15 min at 3000 r/min and 15° C. The resulting supernatant was transferred to a new EP tube, and then the detection was performed according to the instruction of ELISA kit (purchased from Wuhan Elabscience Biotechnology Co., Ltd., Cat. No. E-EL-0022c), and the detection results were shown in Table 3.

| SMILES | expression of endothelial nitric oxide synthase in endothelial cells: Detection result of test compound at low dose (0.4 μM) [1] [pg/mL] | expression of endothelial nitric oxide synthase in endothelial cells: Detection result of test compound at medium dose (2 μM) [1] [pg/mL] | expression of endothelial nitric oxide synthase in endothelial cells: Detection result of test compound at high dose (10 μM) [1] [pg/mL] | IC50 at 24 h [2] [µM] | expression of prostacyclin in endothelial cells: Detection result of test compound at low dose (0.4 μM) [3] [pg/mL] | expression of prostacyclin in endothelial cells: Detection result of test compound at medium dose (2 μM) [3] [pg/mL] | expression of prostacyclin in endothelial cells: Detection result of test compound at high dose (10 μM) [3] [pg/mL] | effect on the expression of prostacyclin (in words) ([3]; low concentration) | effect on the expression of prostacyclin (in words) ([3]; medium and high concentrations) | effect on the expression of nitric oxide synthase (in words) ([1]; high dose) |
| --- | --- | --- | --- | --- | --- | --- | --- | --- | --- | --- |
| O=S(=O)(c1cccc2cnccc12)N1CCCNCC1 [Fasudil hydrochloride, reference compound] | 2810.61 ± 13.02 | 2648.66 ± 9.59 | 2636.14 ± 188.26 | 75.7 | 259.07 ± 40.07 | 208.85 ± 37.07 | 184.93 ± 1.09 | promoted the expression of prostacyclin | inhibited the expression | – |
| C[C@@H]1CNCCCN1S(=O)(=O)c1cccc2c(O)ncc(C3CC3)c12 [Compound R-YK1600-1, (R)-4-cyclopropyl-5-((2-methyl-1,4-diazacycloheptan-1-yl)sulfonyl)isoquinolin-1-ol] | 2528.44 ± 267.48 | 2485.91 ± 287.57 | 2345.81 ± 213.65 | 188 | 243.20 ± 2.28 | 242.34 ± 7.96 | 247.68 ± 3.34 | – | – | – |
| COc1nccc2c(S(=O)(=O)N3CCCNC[C@H]3CCC(C)C)cccc12 [Compound R-YK1612, (R)-5-((2-isopentyl-1,4-diazacycloheptan-1-yl)sulfonyl)-1-methoxyisoquinoline] | 2776.58 ± 261.27 | 2456.67 ± 226.85 | 2286.671 ± 195.06 | 176 | 269.40 ± 8.89 | 269.35 ± 8.69 | 257.44 ± 4.48 | – | – | – |
| COc1nccc2c(S(=O)(=O)N3CCCNC[C@H]3C)cccc12 [Compound R-YK1602, (R)-1-methoxy-5-((2-methyl-1,4-diazacycloheptan-1-yl)sulfonyl)isoquinoline] | 2607.85 ± 384.81 | 2314.00 ± 393.66 | 2262.45 ± 134.54 | 433 | 248.71 ± 19.98 | 263.34 ± 15.04 | 241.51 ± 16.58 | – | – | – |
| CC[C@@H]1CNCCCN1S(=O)(=O)c1cccc2c(OC)nccc12 [Compound R-YK1610, (R)-5-((2-ethyl-1,4-diazacycloheptan-1-yl)sulfonyl)-1-methoxyisoquinoline] | 2632.05 ± 235.87 | 2397.93 ± 280.08 | 2329.68 ± 263.98 | 169 | 275.40 ± 9.89 | 267.35 ± 10.69 | 253.44 ± 12.48 | – | – | – |
| C[C@@H]1CNCCCN1S(=O)(=O)c1cccc2c(O)nccc12 [Compound R-YK1601, (R)-5-((2-methyl-1,4-diazacycloheptan-1-yl)sulfonyl)isoquinolin-1-ol] | 2526.66 ± 220.56 | 2339.70 ± 249.84 | 2598.44 ± 365.33 | 686 | 253.00 ± 5.55 | 253.52 ± 55.60 | 227.01 ± 16.23 | – | – | slight promotion effect |
| COc1ncc(F)c2c(S(=O)(=O)N3CCCNC[C@H]3C)cccc12 [Compound R-YK1605, (R)-4-fluoro-1-methoxy-5-((2-methyl-1,4-diazacycloheptan-1-yl)sulfonyl)isoquinoline] | 2752.53 ± 779.12 | 2261.58 ± 253.77 | 2105.70 ± 87.14 | 184 | 280.07 ± 7.00 | 274.72 ± 32.60 | 246.51 ± 1.44 | – | – | – |
| O=S(=O)(c1cccc2cnccc12)N1CCCNC[C@H]1C1CC1 [Compound R-YK1608, (R)-5-((2-cyclopropyl-1,4-diazacycloheptan-1-yl)sulfonyl)isoquinoline] | 2697.85 ± 284.81 | 2344.00 ± 293.66 | 2269.45 ± 134.54 | 165 | 257.55 ± 4.12 | 251.98 ± 10.41 | 242.23 ± 1.75 | – | – | – |
| C[C@@H]1CNCCCN1S(=O)(=O)c1cccc2c(O)ncc(F)c12 [Compound R-YK1604, (R)-4-fluoro-5-((2-methyl-1,4-diazacycloheptan-1-yl)sulfonyl)isoquinolin-1-ol] | 2932.05 ± 435.87 | 2397.93 ± 180.08 | 2229.68 ± 63.98 | 210 | 280.40 ± 9.89 | 279.35 ± 28.69 | 251.44 ± 42.48 | – | – | – |
